For the experiment, the target named is Protein Kinase A (PKA) (Homo sapiens, UniProt P17612). The settings on record: read-out: Km of ATP for PKA; Kemptide substrate, PKA (Upstate), 30° C. for 1 hour; fitted to Michaelis-Menten equation; FIG. 4.

Km data for one compound are collected here from patent publication US7410755B2, “ADP detection using an enzyme-coupled reaction” (Discoverx, priority 2005, dated 2008).

Molecules are shown by their SMILES.

Excerpt: In this second example, kinase reaction, the activity of PKA is characterized further. In this experiment, the kinetics of ATP on PKA activity was examined by measuring the rate of kinase activity at varying concentration of ATP. The results of this assay were fitted to the Michaelis-Menten equation so that the Km (Michaelis-Menten constant) of ATP for PKA could be determined.
To perform a protein kinase assay using the ADP Detection Assay, the assay reagents were thawed at room temperature for several hours.
Low salt assay buffer (LS ASB) was used to dilute all reagents in the kinase reaction and consisted of 15 mM Hepes, 20 mM NaCl, 1 mM EGTA, 0.02% Tween 20, 10 mM MgCl2, 0.1% bovine gamma globulin at pH 7.4. Substrate reagent was generated containing 800 μM Kemptide substrate. […] PKA kinase (Upstate) was diluted to give a reagent of 20 ng/ml. […]
To detect the generation of ADP as a result of kinase activity, 10 μ ADP Substrate Reagent was added followed immediately by 20 μl of ADP Enzyme Reagent. […] Assay signal was measured with a Fluorocount® fluorescent plate reader (Packard) using 0.1 second integration with excitation and emission wavelengths at 530 and 590 nm respectively and a PMT voltage of 750 Volts.
The data was converted by dividing the signal measured by 60 to obtain the enzyme rate in RFU per minute. […]

By Km is commonly meant the concentration of substrate that gives half-maximal velocity. Turning to `Nc1ncnc2c1ncn2[C@@H]1O[C@H](COP(=O)(O)OP(=O)(O)OP(=O)(O)O)[C@@H](O)[C@H]1O` [ATP], the Km is 22.3 µM.
